Data taken from PMC12142043, “Cell-based high-content approach for SARS-CoV-2 neutralization identifies unique monoclonal antibodies and PI3K pathway inhibitors” (Frontiers in Cell and Developmental Biology, 2025).

Test system: SARS-CoV-2 (USA-WA1/2020) in Calu-3 cells
Type: cell-based
Conditions: Calu-3, 48 h; for dsRNA signal, AU High: high dose (10 µM); for dsRNA signal, AU Low: low dose (100 nM)

| Compound | dsRNA signal, AU High [AU] | dsRNA signal, AU Low [AU] |
| --- | --- | --- |
| NC(=O)c1ccc(-c2nc(-c3ccc4c(c3)OCCO4)c(-c3ccccn3)[nH]2)cc1 [D4476] | 6178.6 | 10405.5 |
| Nc1cccc(S(=O)(=O)N2CCCN(S(=O)(=O)c3ccc4c(c3)OCCO4)CC2)c1 [DASA-58] | 7492.3 | 8577.3 |
| NC(=O)c1ccccc1Nc1ccnc(Nc2cccc(O)c2)n1 [DB07268] | 10652.5 | 37894.5 |
| O=C(O)C(Cl)Cl [DCA] | 2582.6 | 13605.1 |
| CCn1c(=O)c(-c2cc(NC(=O)Nc3ccccc3)c(F)cc2Br)cc2cnc(NC)cc21 [DCC-2618] | 31390.7 | 17341.0 |
| O=C(NCCN1CCCC1)c1cc(-c2ccc(CN3CCOCC3)cc2)nc2ccc(F)cc12 [DDD107498] | 38942.1 | 5409.3 |
| CC(C)Oc1ccc(-c2cnc3c(-c4ccnc5ccccc45)cnn3c2)cc1 [DMH-1] | 13545.0 | 45359.2 |
| CC(C)(C)c1nc(-c2cccc(NS(=O)(=O)c3c(F)cccc3F)c2F)c(-c2ccnc(N)n2)s1.CS(=O)(=O)O [Dabrafenib Mesylate (GSK-2118436)] | 27414.0 | 0.0 |
| COc1cc2ncnc(Nc3ccc(F)c(Cl)c3)c2cc1NC(=O)/C=C/CN1CCCCC1 [Dacomitinib (PF299804, PF299)] | 0.0 | 7030.9 |
| CNC(=O)c1ccc(Nc2ncc(C(F)(F)F)c(NCc3nccnc3N(C)S(C)(=O)=O)n2)cc1 [Defactinib] | 31683.7 | 56452.3 |
| CCCCOc1cc(C(=O)NCCN(CC)CC)c2ccccc2n1.Cl [Dibucaine (Cinchocaine) HCl] | 9319.1 | 11778.5 |
| CCCC(=O)Nc1ncnc2c1ncn2[C@@H]1O[C@@H]2COP(=O)([O-])O[C@H]2[C@H]1OC(=O)CCC.[Na+] [Dibutyryl-cAMP, sodium salt] | 10702.1 | 55803.3 |
| O=C1c2c(O)cc(O)cc2O[C@H](c2cc(O)c(O)c(O)c2)[C@H]1O [Dihydromyricetin] | 20863.8 | 12380.4 |
| CCc1cnn2c(NCc3ccc[n+]([O-])c3)cc(N3CCCC[C@H]3CCO)nc12 [Dinaciclib (SCH727965)] | 10476.7 | 0.0 |
| C[C@@H]1CC[C@@]2(OC1)O[C@H]1C[C@H]3[C@@H]4CC=C5C[C@@H](O)CC[C@]5(C)[C@H]4CC[C@]3(C)[C@H]1[C@@H]2C [Diosgenin] | 0.0 | 2764.9 |
| Cl.Cl.c1cc(-c2cnn3cc(-c4ccc(OCCN5CCCCC5)cc4)cnc23)ccn1 [Dorsomorphin 2HCl] | 1809.4 | 18817.3 |
| c1cc(-c2cnn3cc(-c4ccc(OCCN5CCCCC5)cc4)cnc23)ccn1 [Dorsomorphin (Compound C)] | 6395.6 | 1963.8 |
| CN1CCN(c2ccc3nc(-c4c(N)c5c(F)cccc5[nH]c4=O)[nH]c3c2)CC1 [Dovitinib (TKI-258, CHIR-258)] | 15765.0 | 183.2 |
| CC(O)C(=O)O.CC(O)C(=O)O.CN1CCN(c2ccc3nc(-c4c(N)c5c(F)cccc5[nH]c4=O)[nH]c3c2)CC1 [Dovitinib Dilactic acid] | 47107.5 | 17331.2 |
| O=C(Nc1nccs1)C(c1cc(F)ccc1O)N1Cc2ccccc2C1=O (stereo not drawn) [EAI045] | 0.0 | 14269.6 |
| O=c1cc(CN2CCOCC2)occ1OCCCCCSc1ccnc2cc(C(F)(F)F)ccc12 [EHT 1864] | 22471.9 | 17099.7 |
